Measured values as given in PMC3981761, “A New Assay for Determining Ganglioside Sialyltransferase Activities Lactosylceramide-2,3-Sialyltransferase (SAT I) and Monosialylganglioside-2,3-Sialyltransferase (SAT IV)” (PLoS ONE, 2014).

Tested on: T1, recombinant α2,3-(O)-sialyltransferase (EC 2.4.99.4), rat liver
T1 construct: gene St3gal2; recombinant commercial enzyme (EMD Bioscience), originating from rat liver
Test: HPLC with fluorescence detection of BODIPY-GD1a formed
Type: biochemical
Details: BODIPY-GM1 constant at 13 μM, pH 6, Mes, Triton, 37°C, 1 h; donor substrate

Km: 23.4 ± 0.1 µM
Compound: CC(=O)N[C@H]1[C@H]([C@H](O)[C@H](O)CO)O[C@](OP(=O)(O)OC[C@H]2O[C@@H](n3ccc(N)nc3=O)[C@H](O)[C@@H]2O)(C(=O)O)C[C@@H]1O [CMP-NeuAc]
